Source: paper PMC2873968, “Novel protein kinase D inhibitors cause potent arrest in prostate cancer cell growth and motility” (BMC Chemical Biology, 2010)

Experiments:
[1] = system: PKD; details: reported values, no reference given; cited from earlier work
[2] = molecular target: T1, PKCα (Homo sapiens, UniProt P17252); assay: In vitro radiometric PKC kinase assay; assay type: biochemical
T1 construct: purchased Cell Signaling Technology and Calbiochem
Description: (§1) The PKC in vitro kinase assays were performed as described previously.
(§2) To determine whether the novel analogs retained this specificity, we tested the compounds against their ability to inhibit PKCα, -βI, -δ, and CAMKIIα in in vitro radiometric kinase activity assays. All analogs were poor inhibitors of PKCα and PKCβI, with only slight (< 50%) inhibitory activity at 10 μM concentration (Fig. 5A and 5B).
(§3) Inhibition of PKCα (A), PKCβI (B), PKCδ (C), or CAMKIIα (D) by each of the 5 analogs was determined at 100 nM, 1 μM, and 10 μM concentrations. In the PKC assays, the potent PKC inhibitor GF109203X was used as a control. Data are the mean ± S.E.M. of three independent experiments. Statistical significance was determined using the unpaired t-test. ns, not statistically significant; *, p < 0.05; **, p < 0.01; ***, p < 0.001.

[3] = molecular target: T2, PKCβI (Homo sapiens, UniProt P05771); assay: In vitro radiometric PKC kinase assay; assay type: biochemical
T2 construct: purchased Cell Signaling Technology
T2 sequence (P05771 whole entry): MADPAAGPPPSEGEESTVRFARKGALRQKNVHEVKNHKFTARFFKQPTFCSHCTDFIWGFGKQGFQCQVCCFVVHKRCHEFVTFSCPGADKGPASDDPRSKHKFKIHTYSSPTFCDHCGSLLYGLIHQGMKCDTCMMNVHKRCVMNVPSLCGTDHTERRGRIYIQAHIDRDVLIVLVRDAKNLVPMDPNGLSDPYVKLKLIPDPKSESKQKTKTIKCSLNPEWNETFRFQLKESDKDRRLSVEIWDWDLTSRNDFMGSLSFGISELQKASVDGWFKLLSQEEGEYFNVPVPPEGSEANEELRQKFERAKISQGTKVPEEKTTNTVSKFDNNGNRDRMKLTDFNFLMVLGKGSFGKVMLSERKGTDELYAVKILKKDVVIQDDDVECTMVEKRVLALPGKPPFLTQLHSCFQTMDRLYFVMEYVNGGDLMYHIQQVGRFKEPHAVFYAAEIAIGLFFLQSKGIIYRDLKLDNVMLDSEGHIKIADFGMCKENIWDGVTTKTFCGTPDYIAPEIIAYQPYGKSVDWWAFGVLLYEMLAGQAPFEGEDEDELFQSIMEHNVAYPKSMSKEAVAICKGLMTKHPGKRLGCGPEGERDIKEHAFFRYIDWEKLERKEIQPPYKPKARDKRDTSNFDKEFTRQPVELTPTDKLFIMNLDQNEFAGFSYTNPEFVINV
Description: as §1, §2, §3

[4] = molecular target: T3, PKCδ (Homo sapiens, UniProt Q05655); assay: In vitro radiometric PKC kinase assay; assay type: biochemical
T3 construct: purchased Enzo Life Sciences
T3 sequence (Q05655 whole entry): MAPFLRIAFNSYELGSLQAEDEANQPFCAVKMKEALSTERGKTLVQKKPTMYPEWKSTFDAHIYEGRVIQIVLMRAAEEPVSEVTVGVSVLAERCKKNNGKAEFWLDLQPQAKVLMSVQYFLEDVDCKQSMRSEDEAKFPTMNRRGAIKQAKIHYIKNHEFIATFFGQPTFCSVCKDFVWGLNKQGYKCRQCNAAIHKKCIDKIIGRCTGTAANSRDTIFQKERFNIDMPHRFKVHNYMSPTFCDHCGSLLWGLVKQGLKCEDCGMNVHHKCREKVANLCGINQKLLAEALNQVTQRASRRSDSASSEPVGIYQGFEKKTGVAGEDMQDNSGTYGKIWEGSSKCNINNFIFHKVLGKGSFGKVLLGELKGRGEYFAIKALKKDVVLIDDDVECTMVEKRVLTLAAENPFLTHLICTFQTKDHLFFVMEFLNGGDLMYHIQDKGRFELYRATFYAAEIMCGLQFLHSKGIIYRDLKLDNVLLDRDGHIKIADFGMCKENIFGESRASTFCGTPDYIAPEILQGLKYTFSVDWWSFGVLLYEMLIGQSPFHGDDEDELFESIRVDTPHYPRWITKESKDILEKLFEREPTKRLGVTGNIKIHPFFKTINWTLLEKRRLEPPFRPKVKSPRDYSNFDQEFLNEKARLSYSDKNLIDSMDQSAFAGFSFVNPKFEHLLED
Description: as §1
To determine whether the novel analogs retained this specificity, we tested the compounds against their ability to inhibit PKCα, -βI, -δ, and CAMKIIα in in vitro radiometric kinase activity assays.
as §3, with “In the PKC assays, the potent PKC inhibitor GF109203X was used as a control.” left out

Which IC50 [1] does the source give for `COC(=O)[C@@]1(O)C[C@H]2O[C@]1(C)n1c3ccccc3c3c4c(c5c6ccccc6n2c5c31)C(=O)NC4` [Compound K252a] here?
The IC50 was 7 nM.

Which “inhibition of PKCα (in words)” value [2] does the source give for `CN(C)CCCn1cc(C2=C(c3c[nH]c4ccccc34)C(=O)NC2=O)c2ccccc21` [GF109203X] here?
Its value is “strong inhibition”.

What about the “inhibition of PKCβI (in words)” value [3] of the same molecule?
Its value is “strong inhibition”.

What about the “inhibition of PKCδ (in words)” value [4] of the same molecule?
The value was “strong inhibition”.

For `Cn1c2ccccc2c2c3c(c4c5ccccc5n(CCC#N)c4c21)CNC3=O` [Gö6976], which IC50 [1] is on record?
Its IC50 is 20 nM.
